According to patent publication US7517874B2 (priority 2007, dated 2009):
pEC50: −log10 of the molar value. Read-outs that look alike come from different tables or passages of the source.

How the values were obtained:
rat CB2 receptor (rCB2) = target: T1, rat CB2 receptor (rCB2) (Rattus norvegicus, UniProt Q9QZN9); assay: cell-based; assay type: cell-based; settings: for +/− RCB2: agonist or inverse agonist at rCB2
T1 sequence (Q9QZN9 1-360): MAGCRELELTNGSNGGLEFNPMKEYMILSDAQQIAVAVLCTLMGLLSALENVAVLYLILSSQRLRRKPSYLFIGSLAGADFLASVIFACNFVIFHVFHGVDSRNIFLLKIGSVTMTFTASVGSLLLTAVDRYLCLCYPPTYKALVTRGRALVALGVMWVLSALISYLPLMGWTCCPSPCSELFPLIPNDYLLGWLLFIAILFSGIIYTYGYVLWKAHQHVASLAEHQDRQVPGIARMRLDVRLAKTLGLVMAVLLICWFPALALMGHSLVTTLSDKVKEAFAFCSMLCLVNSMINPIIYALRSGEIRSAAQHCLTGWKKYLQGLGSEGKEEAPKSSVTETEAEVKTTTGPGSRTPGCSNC
How it was run: (§1)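 Agonism or inverse agonism was assessed as change in intracellular cAMP in CHO-K1 cells expressing human CB1 or rat CB2 (genomic DNA, pcDNA3.1).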

[1] = target: human CB1 receptor (hCB1) (Homo sapiens, UniProt P21554); assay: cell-based; assay type: cell-based
How it was run: as §1

Sequence of human CB1 receptor (hCB1) (P21554 whole entry): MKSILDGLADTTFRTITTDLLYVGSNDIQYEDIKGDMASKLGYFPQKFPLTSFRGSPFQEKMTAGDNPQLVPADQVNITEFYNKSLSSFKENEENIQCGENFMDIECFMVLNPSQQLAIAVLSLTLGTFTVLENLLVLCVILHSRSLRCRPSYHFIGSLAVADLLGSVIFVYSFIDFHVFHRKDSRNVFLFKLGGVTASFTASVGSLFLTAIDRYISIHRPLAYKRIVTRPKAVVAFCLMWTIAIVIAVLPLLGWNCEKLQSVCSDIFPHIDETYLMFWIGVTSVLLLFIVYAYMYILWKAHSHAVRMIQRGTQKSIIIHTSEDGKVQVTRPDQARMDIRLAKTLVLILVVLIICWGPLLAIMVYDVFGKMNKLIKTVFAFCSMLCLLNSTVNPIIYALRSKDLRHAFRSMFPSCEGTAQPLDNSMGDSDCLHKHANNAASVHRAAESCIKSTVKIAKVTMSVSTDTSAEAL

Structure (SMILES)	+/− RCB2 (rat CB2 receptor (rCB2))	pEC50 [1]	pEC50 (rat CB2 receptor (rCB2))	EC50 (rat CB2 receptor (rCB2); groups >100 nM-10 μM and >10 μM, cAMP, CHO-K1 rCB2, read-out: EC50 RCB2) [nM]	EC50 ([1]; groups >100 nM-10 μM and >10 μM, cAMP, CHO-K1 hCB1, read-out: EC50 HCB1) [nM]
CNC(=O)[C@@H](NC(=O)c1nc(-c2ccccc2C(F)(F)F)n2c1CN(C)CCC2)C(C)(C)C [Compound 399, (S)-N-(3,3-dimethyl-1-(methylamino)-1-oxobutan-2-yl)-8-methyl-3-(2-(trifluoromethyl)phenyl)-6,7,8,9-tetrahydro-5H-imidazo[1,5-a][1,4]diazepine-1-carboxamide]	+	< 5.00			
CCCC/C=C/c1nc(C(=O)N[C@H](C(=O)NC)C(C)(C)C)c2n1CCCN(C)C2 [Compound 400, (S,E)-N-(3,3-dimethyl-1-(methylamino)-1-oxobutan-2-yl)-3-(hex-1-enyl)-8-methyl-6,7,8,9-tetrahydro-5H-imidazo[1,5-a][1,4]diazepine-1-carboxamide]	+	< 5.00			
CNC(=O)[C@@H](NC(=O)c1nc(-c2ccc(C(=O)N3CCOCC3)cc2)n2c1CN(C)CCC2)C(C)(C)C [Compound 401, (S)-N-(3,3-dimethyl-1-(methylamino)-1-oxobutan-2-yl)-8-methyl-3-(4-(morpholine-4-carbonyl)phenyl)-6,7,8,9-tetrahydro-5H-imidazo[1,5-a][1,4]diazepine-1-carboxamide]		< 5.00	< 5.00		
CNC(=O)[C@@H](NC(=O)c1nc(-c2ccncc2)n2c1CN(C)CCC2)C(C)(C)C [Compound 402, (S)-N-(3,3-dimethyl-1-(methylamino)-1-oxobutan-2-yl)-8-methyl-3-(pyridin-4-yl)-6,7,8,9-tetrahydro-5H-imidazo[1,5-a][1,4]diazepine-1-carboxamide]	+	< 5.00			
CNC(=O)[C@@H](NC(=O)c1nc(-c2ccccc2C(C)C)n2c1CN(C)CCC2)C(C)(C)C [Compound 403, (S)-N-(3,3-dimethyl-1-(methylamino)-1-oxobutan-2-yl)-3-(2-isopropylphenyl)-8-methyl-6,7,8,9-tetrahydro-5H-imidazo[1,5-a][1,4]diazepine-1-carboxamide]	+	< 5.00			
CNC(=O)[C@@H](NC(=O)c1nc(-c2ccc(OC)c(F)c2)n2c1CN(C)CCC2)C(C)(C)C [Compound 404, (S)-N-(3,3-dimethyl-1-(methylamino)-1-oxobutan-2-yl)-3-(3-fluoro-4-methoxyphenyl)-8-methyl-6,7,8,9-tetrahydro-5H-imidazo[1,5-a][1,4]diazepine-1-carboxamide]		< 5.00	< 5.00		
CNC(=O)[C@@H](NC(=O)c1nc(-c2cc(C(N)=O)ccc2F)n2c1CN(C)CCC2)C(C)(C)C [Compound 405, (S)-3-(5-carbamoyl-2-fluorophenyl)-N-(3,3-dimethyl-1-(methylamino)-1-oxobutan-2-yl)-8-methyl-6,7,8,9-tetrahydro-5H-imidazo[1,5-a][1,4]diazepine-1-carboxamide]				> 10000	> 10000
CNC(=O)c1cc(-c2nc(C(=O)N[C@H](C(=O)NC)C(C)(C)C)c3n2CCCN(C)C3)ccc1F [Compound 406, (S)-N-(3,3-dimethyl-1-(methylamino)-1-oxobutan-2-yl)-3-(4-fluoro-3-(methylcarbamoyl)phenyl)-8-methyl-6,7,8,9-tetrahydro-5H-imidazo[1,5-a][1,4]diazepine-1-carboxamide]	+	< 5.00			
CNC(=O)[C@@H](NC(=O)c1nc(-c2cccc(-c3nnc(C)o3)c2)n2c1CN(C)CCC2)C(C)(C)C [Compound 407, (S)-N-(3,3-dimethyl-1-(methylamino)-1-oxobutan-2-yl)-8-methyl-3-(3-(5-methyl-1,3,4-oxadiazol-2-yl)phenyl)-6,7,8,9-tetrahydro-5H-imidazo[1,5-a][1,4]diazepine-1-carboxamide]		< 5.00	< 5.00		
CNC(=O)c1ccc(-c2nc(C(=O)N[C@H](C(=O)NC)C(C)(C)C)c3n2CCCN(C)C3)cc1 [Compound 408]		< 5.00	< 5.00		
CNC(=O)[C@@H](NC(=O)c1nc(-c2cccc(S(C)(=O)=O)c2)n2c1CN(C)CCC2)C(C)(C)C [Compound 409]	−	< 5.00			
CNC(=O)[C@@H](NC(=O)c1nc(-c2ccc(S(=O)(=O)N(C)C)cc2)n2c1CN(C)CCC2)C(C)(C)C [Compound 410, (S)-N-(3,3-dimethyl-1-(methylamino)-1-oxobutan-2-yl)-3-(4-(N,N-dimethylsulfamoyl)phenyl)-8-methyl-6,7,8,9-tetrahydro-5H-imidazo[1,5-a][1,4]diazepine-1-carboxamide]		< 5.00	< 5.00		
CNC(=O)[C@@H](NC(=O)c1nc(-c2ccc(F)c(C(=O)O)c2)n2c1CN(C)CCC2)C(C)(C)C [Compound 411]		< 5.00	< 5.00		
CNC(=O)[C@@H](NC(=O)c1nc(-c2cccc(C(=O)N(C)C)c2)n2c1CN(C)CCC2)C(C)(C)C [Compound 412, (S)-N-(3,3-dimethyl-1-(methylamino)-1-oxobutan-2-yl)-3-(3-(dimethylcarbamoyl)phenyl)-8-methyl-6,7,8,9-tetrahydro-5H-imidazo[1,5-a][1,4]diazepine-1-carboxamide]		< 5.00	< 5.00		
CNC(=O)[C@@H](NC(=O)c1nc(-c2ccccc2-c2ccccc2)n2c1CN(C)CCC2)C(C)(C)C [Compound 413, (S)-3-(biphenyl-2-yl)-N-(3,3-dimethyl-1-(methylamino)-1-oxobutan-2-yl)-8-methyl-6,7,8,9-tetrahydro-5H-imidazo[1,5-a][1,4]diazepine-1-carboxamide]		< 5.00	< 5.00		
CNC(=O)[C@@H](NC(=O)c1nc(-c2ccc(C(C)(C)C)cc2)n2c1CN(C)CCC2)C(C)(C)C [Compound 414, (S)-3-(4-tert-butylphenyl)-N-(3,3-dimethyl-1-(methylamino)-1-oxobutan-2-yl)-8-methyl-6,7,8,9-tetrahydro-5H-imidazo[1,5-a][1,4]diazepine-1-carboxamide]	−	< 5.00			
CNC(=O)[C@@H](NC(=O)c1nc(-c2ccc(C(C)=O)cc2)n2c1CN(C)CCC2)C(C)(C)C [Compound 415, (S)-3-(4-acetylphenyl)-N-(3,3-dimethyl-1-(methylamino)-1-oxobutan-2-yl)-8-methyl-6,7,8,9-tetrahydro-5H-imidazo[1,5-a][1,4]diazepine-1-carboxamide]		< 5.00	< 5.00		
CNC(=O)[C@@H](NC(=O)c1nc(-c2cc(F)cc(C(N)=O)c2)n2c1CN(C)CCC2)C(C)(C)C [Compound 416, (S)-3-(3-carbamoyl-5-fluorophenyl)-N-(3,3-dimethyl-1-(methylamino)-1-oxobutan-2-yl)-8-methyl-6,7,8,9-tetrahydro-5H-imidazo[1,5-a][1,4]diazepine-1-carboxamide]	+	< 5.00			
CNC(=O)[C@@H](NC(=O)c1nc(-c2cccc3ccccc23)n2c1CN(C)CCC2)C(C)(C)C [Compound 417, (S)-N-(3,3-dimethyl-1-(methylamino)-1-oxobutan-2-yl)-8-methyl-3-(naphthalen-1-yl)-6,7,8,9-tetrahydro-5H-imidazo[1,5-a][1,4]diazepine-1-carboxamide]	+	< 5.00			
CNC(=O)[C@@H](NC(=O)c1nc(-c2cc(OC)cc(C(F)(F)F)c2)n2c1CN(C)CCC2)C(C)(C)C [Compound 418, (S)-N-(3,3-dimethyl-1-(methylamino)-1-oxobutan-2-yl)-3-(3-methoxy-5-(trifluoromethyl)phenyl)-8-methyl-6,7,8,9-tetrahydro-5H-imidazo[1,5-a][1,4]diazepine-1-carboxamide]	−	< 5.00			
CNC(=O)[C@@H](NC(=O)c1nc(-c2ccc(-c3ccccc3)c(F)c2)n2c1CN(C)CCC2)C(C)(C)C [Compound 419, (S)-N-(3,3-dimethyl-1-(methylamino)-1-oxobutan-2-yl)-3-(2-fluorobiphenyl-4-yl)-8-methyl-6,7,8,9-tetrahydro-5H-imidazo[1,5-a][1,4]diazepine-1-carboxamide]		< 5.00	< 5.00		
CNC(=O)[C@@H](NC(=O)c1nc(-c2ccc(NS(C)(=O)=O)cc2)n2c1CN(C)CCC2)C(C)(C)C [Compound 420, (S)-N-(3,3-dimethyl-1-(methylamino)-1-oxobutan-2-yl)-8-methyl-3-(4-(methylsulfonamido)phenyl)-6,7,8,9-tetrahydro-5H-imidazo[1,5-a][1,4]diazepine-1-carboxamide]	−	< 5.00			
CNC(=O)[C@@H](NC(=O)c1nc(-c2cccc(NS(C)(=O)=O)c2)n2c1CN(C)CCC2)C(C)(C)C [Compound 421, (S)-N-(3,3-dimethyl-1-(methylamino)-1-oxobutan-2-yl)-8-methyl-3-(3-(methylsulfonamido)phenyl)-6,7,8,9-tetrahydro-5H-imidazo[1,5-a][1,4]diazepine-1-carboxamide]	−	< 5.00			
CNC(=O)[C@@H](NC(=O)c1nc(-c2cccc(C(N)=O)c2)n2c1CN(C)CCC2)C(C)(C)C [Compound 422, (S)-3-(3-carbamoylphenyl)-N-(3,3-dimethyl-1-(methylamino)-1-oxobutan-2-yl)-8-methyl-6,7,8,9-tetrahydro-5H-imidazo[1,5-a][1,4]diazepine-1-carboxamide]		< 5.00	< 5.00		
